Experimental data as given in US11987568B2, “Allosteric inhibitor of WEE1 kinase” (H. LEE MOFFITT CANCER CENTER AND RESEARCH INSTITUTE, INC., priority 2018, dated 2024).
Values joined by “and” are separate entries in the source; they are usually repeats but may differ in a detail not shown here. Equal entries are not always repeated.

Biological target: full length human WEE1 kinase (Homo sapiens, UniProt P30291)
Experiment: ELISA based assay: WEE1 phosphorylation of biotinylated H2B peptide spanning Tyr37
Assay type: biochemical
Design: A full length human WEE1 kinase that was enzymatically active was purified from insect cell; ELISA assay % Inhibition: concentration or dose not given beside the values
Conditions: for ELISA Inhibition (%): Table 1, several values in a cell are repeat determinations
Text: Designing of a Novel inhibitor Screening Platform: […] A full length human WEE1 kinase that was enzymatically active was purified from insect cell. […] NCI diversity set compound library ( 1600 compounds) was used for the screening.

Chain of full length human WEE1 kinase (P30291 whole entry): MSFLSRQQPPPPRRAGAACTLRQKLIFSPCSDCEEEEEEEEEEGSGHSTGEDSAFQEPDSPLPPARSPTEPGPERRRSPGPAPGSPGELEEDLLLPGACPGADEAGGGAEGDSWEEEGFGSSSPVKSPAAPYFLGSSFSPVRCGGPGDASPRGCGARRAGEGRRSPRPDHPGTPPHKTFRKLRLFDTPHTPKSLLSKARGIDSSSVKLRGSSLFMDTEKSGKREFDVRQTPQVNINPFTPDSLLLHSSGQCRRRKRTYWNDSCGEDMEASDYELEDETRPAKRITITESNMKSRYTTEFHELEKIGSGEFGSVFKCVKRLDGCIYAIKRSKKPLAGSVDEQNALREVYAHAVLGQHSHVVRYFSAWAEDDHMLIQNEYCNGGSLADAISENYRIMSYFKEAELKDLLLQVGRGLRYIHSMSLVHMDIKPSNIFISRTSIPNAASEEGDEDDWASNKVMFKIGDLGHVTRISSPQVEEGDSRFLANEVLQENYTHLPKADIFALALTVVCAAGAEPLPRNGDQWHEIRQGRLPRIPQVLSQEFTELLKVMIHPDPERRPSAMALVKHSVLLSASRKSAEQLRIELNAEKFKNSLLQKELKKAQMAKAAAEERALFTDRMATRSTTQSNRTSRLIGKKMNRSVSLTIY

Row | ELISA Inhibition (%) | Compound | other results
1 | 14% | Cc1cc(C(=O)Nc2ccc(N)cc2)c(C)cc1C(=O)Nc1ccc(N)cc1 [SG5-110] | 
2 | 2% | Nc1ccc(NC(=O)c2cccc(C(=O)Nc3ccc(N)cc3)n2)cc1 [SG5-128] | 
3 | 17% | CC(C)(C)OC(=O)Nc1ccc(NC(=O)c2ccc(C(=O)Nc3ccc(NC(=O)OC(C)(C)C)c(Cl)c3)o2)cc1Cl [SG5-140-6] | 
4 | 12% | CC(C)(C)OC(=O)Nc1ccc(CNC(=O)c2ccc(C(=O)NCc3ccc(NC(=O)OC(C)(C)C)cc3)nc2)cc1 [SG5-140-15] | 
5 | −52% | Cl.Nc1ccc(NC(=O)c2ccc(C(=O)Nc3ccc(N)c(Cl)c3)cc2)cc1Cl [SG5-137-2] | 
6 | −7% | CC(C)(C)OC(=O)Nc1ccc(NC(=O)[C@H]2CC[C@H](C(=O)Nc3ccc(NC(=O)OC(C)(C)C)cc3)CC2)cc1 [SG5-121] | 
7 | 22% | CC(C)(C)OC(=O)Nc1ccc(NC(=O)c2ccc(C(=O)Nc3ccc(NC(=O)OC(C)(C)C)c(F)c3)nc2)cc1F [SG5-140-3, Di-tert-butyl (((pyridine-2,5-dicarbonyl)bis(azanediyl))bis(2-fluoro-4,1-phenylene))dicarbamate] | 
8 | −5% | Cl.O=C(NC1CCNCC1)c1ccc(C(=O)NC2CCNCC2)o1 [SG5-147-18] | 
9 | 41% | Cc1cc(C(=O)Nc2ccc(N)c(F)c2)c(C)cc1C(=O)Nc1ccc(N)c(F)c1.Cl [SG5-147-1] | 
10 | 37% | Cl.Nc1ccc(NC(=O)c2ccc(C(=O)Nc3ccc(N)c(F)c3)o2)cc1F [SG5-147-2] | 
11 | 28% | CC(C)(C)OC(=O)N1CCC(NC(=O)c2ccc(C(=O)NC3CCN(C(=O)OC(C)(C)C)CC3)nc2)CC1 [SG5-140-19] | 
12 | 10% | Cc1cc(C(=O)NC2CCN(C(=O)OC(C)(C)C)CC2)c(C)cc1C(=O)NC1CCN(C(=O)OC(C)(C)C)CC1 [SG5-140-17] | 
13 |  | Cl.Nc1ccc(CNC(=O)c2ccc(C(=O)NCc3ccc(N)cc3)cc2)cc1 [SG5-137-3, N^1,N^4-bis(4-aminobenzyl)terephthalamide dihydrochloride] | ELISA Inhibition (%) (dihydrochloride): 32% and 60%
14 | −8% | CC(C)(C)OC(=O)Nc1ccc(NC(=O)c2ccc(C(=O)Nc3ccc(NC(=O)OC(C)(C)C)cc3)o2)cc1 [SG5-107, Di-tert-butyl (((furan-2,5-dicarbonyl)bis(azanediyl))bis(4,1-phenylene))dicarbamate] | 
15 | −24% | Nc1ccc(NC(=O)c2ccc(C(=O)Nc3ccc(N)c(F)c3)cc2)cc1F [SG5-137-1] | 
16 | 17% | Cl.Nc1ccc(NC(=O)C2CCC(C(=O)Nc3ccc(N)c(Cl)c3)CC2)cc1Cl (stereo not drawn) [SG5-147-8] | 
17 | 21% | Cc1cc(C(=O)NC2CCNCC2)c(C)cc1C(=O)NC1CCNCC1.Cl [SG5-147-17] | 
18 | 4% | Cl.NCc1ccc(NC(=O)c2ccc(C(=O)Nc3ccc(CN)cc3)o2)cc1 [SG5-147-10] | 
19 | 20% | Cl.Nc1ccc(NC(=O)C2CCC(C(=O)Nc3ccc(N)c(F)c3)CC2)cc1F (stereo not drawn) [SG5-147-4] | 
20 | 18% | Cc1cc(C(=O)Nc2ccc(CNC(=O)OC(C)(C)C)cc2)c(C)cc1C(=O)Nc1ccc(CNC(=O)OC(C)(C)C)cc1 [SG5-140-9] | 
21 | −9% | Cl.NCc1ccc(NC(=O)C2CCC(C(=O)Nc3ccc(CN)cc3)CC2)cc1 (stereo not drawn) [SG5-147-12] | 
22 | 22% | Cl.O=C(NC1CCNCC1)C1CCC(C(=O)NC2CCNCC2)CC1 (stereo not drawn) [SG5-147-20] | 
23 | 13% | Cl.Nc1ccc(NC(=O)c2ccc(C(=O)Nc3ccc(N)c(Cl)c3)o2)cc1Cl [SG5-147-6] | 
24 | 12% | CC(C)(C)OC(=O)Nc1ccc(NC(=O)c2ccc(C(=O)Nc3ccc(NC(=O)OC(C)(C)C)c(Cl)c3)nc2)cc1Cl [SG5-140-7] | 
25 | −6% | CC(C)(C)OC(=O)NCc1ccc(NC(=O)c2ccc(C(=O)Nc3ccc(CNC(=O)OC(C)(C)C)cc3)nc2)cc1 [SG5-140-11, Di-tert-butyl ((((pyridine-2,5-dicarbonyl)bis(azanediyl))bis(4,1-phenylene))bis(methylene))dicarbamate] | 
26 | −14% | Cl.Nc1ccc(CNC(=O)C2CCC(C(=O)NCc3ccc(N)cc3)CC2)cc1 (stereo not drawn) [SG5-147-16] | 

Row | ELISA Inhibition (%) | Compound | other results
27 | −39% | Nc1ccc(NC(=O)[C@H]2CC[C@H](C(=O)Nc3ccc(N)cc3)CC2)cc1 [SG5-126] | 
28 | 20% | CC(C)(C)OC(=O)Nc1ccc(NC(=O)[C@H]2CC[C@H](C(=O)Nc3ccc(NC(=O)OC(C)(C)C)c(F)c3)CC2)cc1F [SG5-140-4] | 
29 | −23% | Cc1cc(C(=O)Nc2ccc(NC(=O)OC(C)(C)C)cc2)c(C)cc1C(=O)Nc1ccc(NC(=O)OC(C)(C)C)cc1 [SG5-106] | 
30 | 4% | CC(C)(C)OC(=O)NCc1ccc(NC(=O)C2CCC(C(=O)Nc3ccc(CNC(=O)OC(C)(C)C)cc3)CC2)cc1 (stereo not drawn) [SG5-140-12] | 
31 | −4% | CC(C)(C)OC(=O)Nc1ccc(CNC(=O)c2ccc(C(=O)NCc3ccc(NC(=O)OC(C)(C)C)cc3)o2)cc1 [SG5-140-14] | 
32 | −38% | CC(C)(C)OC(=O)Nc1ccc(NC(=O)c2ccc(C(=O)Nc3ccc(NC(=O)OC(C)(C)C)c(Cl)c3)cc2)cc1Cl [SG5-133-2] | 
33 | −17% | CC(C)(C)OC(=O)Nc1ccc(NC(=O)c2ccc(C(=O)Nc3ccc(NC(=O)OC(C)(C)C)cc3)nc2)cc1 [SG5-119, Di-tert-butyl (((pyridine-2,5-dicarbonyl)bis(azanediyl))bis(4,1-phenylene))dicarbamate] | 
34 | 12% | Nc1ccc(NC(=O)c2cccc(C(=O)Nc3ccc(N)cc3)c2)cc1 [SG5-103] | 
35 | 9% | Cc1cc(C(=O)Nc2ccc(CN)cc2)c(C)cc1C(=O)Nc1ccc(CN)cc1.Cl [SG5-147-9] | 
36 | 73% and 103% | Nc1ccc(NC(=O)c2ccc(C(=O)Nc3ccc(N)cc3)nc2)cc1 [SG5-124, N^2,N^5-bis(4-aminophenyl)pyridine-2,5-dicarboxamide] | ELISA assay % Inhibition (Table 3, No peptide = 100, No inhibitor = 0): 98%
37 | −27% | CC(C)(C)OC(=O)N1CCC(NC(=O)c2ccc(C(=O)NC3CCN(C(=O)OC(C)(C)C)CC3)o2)CC1 [SG5-140-18] | 
38 | 25% | CC(C)(C)OC(=O)Nc1ccc(NC(=O)C2CCC(C(=O)Nc3ccc(NC(=O)OC(C)(C)C)c(Cl)c3)CC2)cc1Cl (stereo not drawn) [SG5-140-8] | 
39 | −16% | Cl.Nc1ccc(CNC(=O)c2ccc(C(=O)NCc3ccc(N)cc3)o2)cc1 [SG5-147-14] | 
40 | 13% | CC(C)(C)OC(=O)NCc1ccc(NC(=O)c2ccc(C(=O)Nc3ccc(CNC(=O)OC(C)(C)C)cc3)o2)cc1 [SG5-140-10] | 
41 | −57% | CC(C)(C)OC(=O)Nc1ccc(NC(=O)c2ccc(C(=O)Nc3ccc(NC(=O)OC(C)(C)C)c(F)c3)cc2)cc1F [SG5-133-1] | 
42 | −14% | CC(C)(C)OC(=O)Nc1ccc(NC(=O)c2cccc(C(=O)Nc3ccc(NC(=O)OC(C)(C)C)cc3)c2)cc1 [SG5-099] | 
43 | 24% | Cc1cc(C(=O)Nc2ccc(NC(=O)OC(C)(C)C)c(Cl)c2)c(C)cc1C(=O)Nc1ccc(NC(=O)OC(C)(C)C)c(Cl)c1 [SG5-140-5] | 
44 | −4% | Cc1cc(C(=O)NCc2ccc(NC(=O)OC(C)(C)C)cc2)c(C)cc1C(=O)NCc1ccc(NC(=O)OC(C)(C)C)cc1 [SG5-140-13] | 
45 | 28% | CC(C)(C)OC(=O)N1CCC(NC(=O)C2CCC(C(=O)NC3CCN(C(=O)OC(C)(C)C)CC3)CC2)CC1 (stereo not drawn) [SG5-140-20] | 
46 | 25% | CC(C)(C)OC(=O)Nc1ccc(NC(=O)c2ccc(C(=O)Nc3ccc(NC(=O)OC(C)(C)C)c(F)c3)o2)cc1F [SG5-140-2] | 
47 | 25% | Cc1cc(C(=O)Nc2ccc(NC(=O)OC(C)(C)C)c(F)c2)c(C)cc1C(=O)Nc1ccc(NC(=O)OC(C)(C)C)c(F)c1 [SG5-140-1] | 
48 | 8% | CC(C)(C)OC(=O)Nc1ccc(CNC(=O)C2CCC(C(=O)NCc3ccc(NC(=O)OC(C)(C)C)cc3)CC2)cc1 (stereo not drawn) [SG5-140-16] | 
49 | −39% | CC(C)(C)OC(=O)Nc1ccc(NC(=O)c2cccc(C(=O)Nc3ccc(NC(=O)OC(C)(C)C)cc3)n2)cc1 [SG5-123] | 
50 | 12% | Cc1cc(C(=O)NCc2ccc(N)cc2)c(C)cc1C(=O)NCc1ccc(N)cc1.Cl [SG5-147-13] | 
51 | 2% | Cc1cc(C(=O)Nc2ccc(N)c(Cl)c2)c(C)cc1C(=O)Nc1ccc(N)c(Cl)c1.Cl [SG5-147-5] | 

Row | Compound | ELISA Inhibition (%) | other results
52 | Cl.Cl.Cl.Nc1ccc(NC(=O)c2ccc(C(=O)Nc3ccc(N)c(F)c3)nc2)cc1F [SG5-147-3, (2,5-Bis((4-amino-3-fluorophenyl)carbamoyl)pyridin-1-ium-1-yl)hydridochlorate(I) dihydrochloride] | 50% | 
53 | (2,5-Bis((4-(aminomethyl)phenyl)carbamoyl)pyridin-1-ium-1-yl)hydridochlorate(I) dihydrochloride [SG5-147-11] | 68% | 
